# Measurements taken from PMC9492542, “Brain-restricted mTOR inhibition with binary pharmacology” (Nature, 2022).
# Where “and” joins values, the source holds several entries; their conditions need not be identical. Identical values can stand only once. Like-named read-outs stand apart in the source and are kept apart here.
# What was measured:
# LRRK2 [1] = target: T1, LRRK2 (Homo sapiens, UniProt Q5S007); experiment: In vitro LRRK2 kinase inhibition assay (SelectScreen Adapta), with or without 10 µM FKBP12; type: biochemical
# T1 construct: purchased SelectScreen Services (Thermo Fisher Scientific)
# Description: In vitro kinase inhibition assays were performed by SelectScreen Services (Thermo Fisher Scientific) using either Z’-LYTE (mTOR, Src, Csk, EGFR, HER2 and HGK), Adapta (LRRK2) or LanthaScreen (DDR2) assay format (standardized protocols can be accessed on the SelectScreen website: https://www.thermofisher.com/us/en/home/products-and-services/services/custom-services/screening-and-profiling-services/selectscreen-profiling-service/selectscreen-kinase-profiling-service.html. When indicated, recombinant FKBP12 protein was added to the assay mixture to a final concentration of 10 µM.
# LRRK2 [2] = target: LRRK2 (Mus musculus, UniProt Q5S006); experiment: Phospho-LRRK2 (S935) quantification by TR-FRET in RAW264.7 cells; details: for P-LRRK2(S935) in RAW264.7 cells: replicate raw data
# Description: Phospho-LRRK2 (S935) was quantified in drug-treated cells using a Phospho-LRRK2 (Ser935) cellular kit (Cisbio) following the manufacturer’s instructions. […] Cells were treated with compounds at the indicated concentrations for 2 h. Medium was removed by aspiration and the cells were rinsed with ice-cold PBS (1 ml). Cells were lysed with 100 µl Cisbio 1X lysis buffer at 23 °C directly in plate for 30 min. […] Clarified lysate (16 µl) was dispensed into one well of a low-volume, round-bottom 384-well plate, and 4 µl LRRK2–phospho-LRRK2 (S935) antibody master mix (Cisbio) was added to each well. The plate was incubated at 23 °C for 4 h.
# The TR-FRET signal was calculated as the ratio fluorescence intensity [read B]/[read A].
# FKBP12 = target: T2, FKBP12 (Homo sapiens, UniProt P62942); experiment: Competition fluorescence polarization assay with FITC-rapamycin tracer; type: binding; details: recombinant FKBP12, Extended Data Fig. 2; read-out: Kd (FKBP12)
# T2 construct: His-tag (HRV 3C cleavable) (cleaved yes); made in house; host or cells: Escherichia coli BL21(DE3)
# T2 sequence (P62942 whole entry): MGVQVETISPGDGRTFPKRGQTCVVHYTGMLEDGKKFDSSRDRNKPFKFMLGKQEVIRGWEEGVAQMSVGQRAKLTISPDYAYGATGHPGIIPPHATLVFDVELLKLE
# Description: Compound binding affinity was determined using a competition fluorescence polarization assay. […] The assay buffer was 20 mM HEPES pH 7.5 and 0.01% Triton X-100. […] Data were fitted to a three-parameter sigmoidal curve to derive IC50 values. Ki of the compounds were calculated using a tool provided by S. Wang’s laboratory (http://www.umich.edu/~shaomengwanglab/software/calc_ki/index.html). Data were plotted in GraphPad Prism 9.0.
# Sequence of LRRK2 (Mus musculus, UniProt Q5S006) (Q5S006 whole entry): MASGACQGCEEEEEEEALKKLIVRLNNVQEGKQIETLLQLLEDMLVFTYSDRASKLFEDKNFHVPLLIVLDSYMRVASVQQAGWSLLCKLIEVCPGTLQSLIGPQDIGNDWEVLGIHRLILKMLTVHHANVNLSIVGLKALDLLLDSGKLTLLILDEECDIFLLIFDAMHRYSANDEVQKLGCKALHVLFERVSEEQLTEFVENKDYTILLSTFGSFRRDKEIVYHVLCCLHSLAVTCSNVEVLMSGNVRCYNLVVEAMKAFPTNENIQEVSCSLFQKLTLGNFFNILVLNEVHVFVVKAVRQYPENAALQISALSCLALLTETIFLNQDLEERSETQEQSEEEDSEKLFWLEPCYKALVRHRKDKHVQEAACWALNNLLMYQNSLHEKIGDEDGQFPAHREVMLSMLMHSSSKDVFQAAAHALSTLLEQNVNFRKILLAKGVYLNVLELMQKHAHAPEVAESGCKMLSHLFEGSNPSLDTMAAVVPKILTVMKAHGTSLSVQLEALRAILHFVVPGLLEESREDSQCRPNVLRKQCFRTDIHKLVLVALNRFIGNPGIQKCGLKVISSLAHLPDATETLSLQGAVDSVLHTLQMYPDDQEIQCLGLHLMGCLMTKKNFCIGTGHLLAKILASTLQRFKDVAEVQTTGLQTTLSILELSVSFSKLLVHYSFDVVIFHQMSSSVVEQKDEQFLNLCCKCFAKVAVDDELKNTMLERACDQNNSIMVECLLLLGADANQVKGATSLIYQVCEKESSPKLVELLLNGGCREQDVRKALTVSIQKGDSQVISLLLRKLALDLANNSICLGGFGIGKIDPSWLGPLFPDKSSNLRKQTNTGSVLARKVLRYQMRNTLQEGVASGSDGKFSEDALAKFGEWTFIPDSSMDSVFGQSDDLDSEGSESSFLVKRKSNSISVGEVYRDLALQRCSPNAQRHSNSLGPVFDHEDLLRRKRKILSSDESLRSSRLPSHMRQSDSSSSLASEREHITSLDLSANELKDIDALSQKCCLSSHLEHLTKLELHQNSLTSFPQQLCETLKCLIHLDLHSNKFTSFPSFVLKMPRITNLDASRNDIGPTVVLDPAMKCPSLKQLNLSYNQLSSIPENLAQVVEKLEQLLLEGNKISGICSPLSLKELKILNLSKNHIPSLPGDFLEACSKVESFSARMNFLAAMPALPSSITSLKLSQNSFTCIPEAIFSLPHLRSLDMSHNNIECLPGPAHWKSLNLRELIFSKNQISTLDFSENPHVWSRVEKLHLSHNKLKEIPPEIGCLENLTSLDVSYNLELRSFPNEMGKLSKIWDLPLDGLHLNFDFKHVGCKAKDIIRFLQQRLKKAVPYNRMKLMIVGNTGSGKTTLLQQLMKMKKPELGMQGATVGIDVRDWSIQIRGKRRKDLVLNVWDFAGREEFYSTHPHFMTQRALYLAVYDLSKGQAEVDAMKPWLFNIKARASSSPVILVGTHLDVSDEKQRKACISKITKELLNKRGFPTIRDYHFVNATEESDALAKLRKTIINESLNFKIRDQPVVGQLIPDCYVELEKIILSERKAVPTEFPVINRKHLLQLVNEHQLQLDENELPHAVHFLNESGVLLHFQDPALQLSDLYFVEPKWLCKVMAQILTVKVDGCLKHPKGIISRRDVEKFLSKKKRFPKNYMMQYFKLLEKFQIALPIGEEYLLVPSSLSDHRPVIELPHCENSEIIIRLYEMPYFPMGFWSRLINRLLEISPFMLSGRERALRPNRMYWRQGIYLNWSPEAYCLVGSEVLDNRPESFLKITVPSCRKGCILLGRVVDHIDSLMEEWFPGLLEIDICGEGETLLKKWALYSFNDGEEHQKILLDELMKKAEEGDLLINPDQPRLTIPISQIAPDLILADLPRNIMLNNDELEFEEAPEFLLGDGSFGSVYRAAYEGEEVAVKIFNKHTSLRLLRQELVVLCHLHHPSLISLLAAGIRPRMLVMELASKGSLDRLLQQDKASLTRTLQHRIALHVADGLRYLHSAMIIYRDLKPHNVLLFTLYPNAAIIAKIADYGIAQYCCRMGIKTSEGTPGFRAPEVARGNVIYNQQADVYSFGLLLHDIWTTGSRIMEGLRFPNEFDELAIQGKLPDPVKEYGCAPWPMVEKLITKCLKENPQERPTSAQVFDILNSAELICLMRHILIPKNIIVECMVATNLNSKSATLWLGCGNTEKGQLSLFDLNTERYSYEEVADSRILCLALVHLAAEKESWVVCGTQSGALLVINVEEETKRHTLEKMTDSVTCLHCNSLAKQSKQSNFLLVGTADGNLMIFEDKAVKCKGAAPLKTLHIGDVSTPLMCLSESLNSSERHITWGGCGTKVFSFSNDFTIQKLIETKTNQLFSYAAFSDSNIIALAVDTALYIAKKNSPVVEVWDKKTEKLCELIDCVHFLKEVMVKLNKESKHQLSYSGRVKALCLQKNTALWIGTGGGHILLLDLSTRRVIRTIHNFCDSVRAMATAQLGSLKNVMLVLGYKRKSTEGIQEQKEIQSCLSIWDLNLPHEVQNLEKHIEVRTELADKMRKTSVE
# T1 sequence (Q5S007 whole entry): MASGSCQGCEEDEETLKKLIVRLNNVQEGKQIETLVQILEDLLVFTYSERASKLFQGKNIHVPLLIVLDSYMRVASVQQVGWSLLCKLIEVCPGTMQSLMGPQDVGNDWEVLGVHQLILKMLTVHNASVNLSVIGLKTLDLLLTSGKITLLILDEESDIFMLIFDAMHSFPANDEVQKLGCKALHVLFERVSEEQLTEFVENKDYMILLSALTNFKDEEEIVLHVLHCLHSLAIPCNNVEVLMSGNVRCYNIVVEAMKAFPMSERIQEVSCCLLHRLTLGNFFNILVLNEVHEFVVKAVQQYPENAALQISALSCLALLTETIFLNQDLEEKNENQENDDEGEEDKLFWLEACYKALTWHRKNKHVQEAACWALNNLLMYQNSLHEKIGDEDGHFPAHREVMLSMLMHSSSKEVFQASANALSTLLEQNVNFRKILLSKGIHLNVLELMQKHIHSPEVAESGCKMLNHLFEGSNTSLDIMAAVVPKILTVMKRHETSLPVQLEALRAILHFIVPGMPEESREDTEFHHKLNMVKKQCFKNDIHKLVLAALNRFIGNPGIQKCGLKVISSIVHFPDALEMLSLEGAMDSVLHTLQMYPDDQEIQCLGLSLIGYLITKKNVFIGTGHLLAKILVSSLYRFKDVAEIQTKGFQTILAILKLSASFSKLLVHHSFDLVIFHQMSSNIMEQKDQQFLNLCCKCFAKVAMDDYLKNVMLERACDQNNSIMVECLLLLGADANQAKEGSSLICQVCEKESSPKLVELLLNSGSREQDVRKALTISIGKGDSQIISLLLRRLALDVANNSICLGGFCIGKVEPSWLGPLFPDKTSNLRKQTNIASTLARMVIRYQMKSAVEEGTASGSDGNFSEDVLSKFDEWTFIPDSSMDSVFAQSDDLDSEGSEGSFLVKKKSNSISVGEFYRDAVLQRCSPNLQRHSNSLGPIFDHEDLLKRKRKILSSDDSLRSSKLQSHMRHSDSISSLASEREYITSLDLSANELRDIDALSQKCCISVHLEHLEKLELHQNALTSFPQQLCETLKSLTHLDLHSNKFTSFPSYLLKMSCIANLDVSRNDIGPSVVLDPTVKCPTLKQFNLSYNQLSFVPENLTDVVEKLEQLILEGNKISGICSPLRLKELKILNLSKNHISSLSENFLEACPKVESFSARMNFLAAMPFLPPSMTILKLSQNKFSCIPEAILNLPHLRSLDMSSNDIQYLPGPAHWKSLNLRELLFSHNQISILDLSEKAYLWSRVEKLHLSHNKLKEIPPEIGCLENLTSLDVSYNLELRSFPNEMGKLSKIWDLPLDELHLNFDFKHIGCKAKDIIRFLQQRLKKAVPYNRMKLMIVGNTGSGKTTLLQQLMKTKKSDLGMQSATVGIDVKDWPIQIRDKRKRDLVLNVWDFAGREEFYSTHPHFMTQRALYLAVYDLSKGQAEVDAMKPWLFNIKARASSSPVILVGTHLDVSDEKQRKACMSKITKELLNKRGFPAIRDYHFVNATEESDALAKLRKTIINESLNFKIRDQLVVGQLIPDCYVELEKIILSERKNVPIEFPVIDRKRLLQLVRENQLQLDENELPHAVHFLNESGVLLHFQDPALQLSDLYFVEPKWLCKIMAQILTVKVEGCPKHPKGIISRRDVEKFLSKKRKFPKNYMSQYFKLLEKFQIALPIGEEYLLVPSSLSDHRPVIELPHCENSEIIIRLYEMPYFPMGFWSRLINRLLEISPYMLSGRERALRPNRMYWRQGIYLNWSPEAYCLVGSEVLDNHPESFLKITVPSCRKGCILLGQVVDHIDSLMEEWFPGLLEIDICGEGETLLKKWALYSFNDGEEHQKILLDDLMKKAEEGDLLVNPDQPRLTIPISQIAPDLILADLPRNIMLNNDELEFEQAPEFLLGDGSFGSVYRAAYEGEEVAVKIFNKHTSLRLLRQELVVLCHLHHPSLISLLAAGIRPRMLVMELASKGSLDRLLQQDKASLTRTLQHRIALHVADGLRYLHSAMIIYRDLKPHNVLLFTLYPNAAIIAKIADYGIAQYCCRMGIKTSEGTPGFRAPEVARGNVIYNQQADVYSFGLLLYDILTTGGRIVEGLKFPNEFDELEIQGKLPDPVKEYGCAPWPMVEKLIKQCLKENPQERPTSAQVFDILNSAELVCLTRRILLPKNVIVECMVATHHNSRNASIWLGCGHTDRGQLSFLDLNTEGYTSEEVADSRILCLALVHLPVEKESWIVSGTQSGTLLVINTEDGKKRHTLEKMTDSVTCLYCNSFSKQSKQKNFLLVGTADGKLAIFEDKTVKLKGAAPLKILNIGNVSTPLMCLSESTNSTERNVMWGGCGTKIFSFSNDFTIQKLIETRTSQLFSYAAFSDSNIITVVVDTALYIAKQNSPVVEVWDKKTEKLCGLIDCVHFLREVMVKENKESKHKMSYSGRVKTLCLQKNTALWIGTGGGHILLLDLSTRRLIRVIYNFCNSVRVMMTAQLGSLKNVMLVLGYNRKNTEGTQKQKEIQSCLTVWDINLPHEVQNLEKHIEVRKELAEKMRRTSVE
structure (smiles),measurement,setting,value
CCNc1nc(Nc2cc(F)c(C(=O)N3CCN(C(=O)CCC[C@@H]4/C=C(\C)C[C@H](C)C[C@H](OC)[C@H]5O[C@@](O)(C(=O)C(=O)N6CCCC[C@H]6C(=O)O[C@H](/C(C)=C/[C@@H]6CC[C@@H](O)[C@H](OC)C6)[C@H](C)[C@@H](O)CC4=O)[C@H](C)C[C@@H]5OC)CC3)cc2OC)ncc1C(F)(F)F [FK-GNE7915],residual kinase activity (LRRK2),"LRRK2 [1]; 0.495 nM drug, + 10 µM FKBP12",87
same,residual kinase activity (LRRK2),"LRRK2 [1]; 0.495 nM drug, no FKBP12",95
same,residual kinase activity (LRRK2),"LRRK2 [1]; 1.52 nM drug, + 10 µM FKBP12",87
same,residual kinase activity (LRRK2),"LRRK2 [1]; 1.52 nM drug, no FKBP12",95
same,residual kinase activity (LRRK2),"LRRK2 [1]; 4.57 nM drug, + 10 µM FKBP12",65
same,residual kinase activity (LRRK2),"LRRK2 [1]; 4.57 nM drug, no FKBP12",107
same,residual kinase activity (LRRK2),"LRRK2 [1]; 13.7 nM drug, no FKBP12",90
same,residual kinase activity (LRRK2),"LRRK2 [1]; 41.2 nM drug, + 10 µM FKBP12",41
same,residual kinase activity (LRRK2),"LRRK2 [1]; 41.2 nM drug, no FKBP12",70
same,residual kinase activity (LRRK2),"LRRK2 [1]; 123 nM drug, + 10 µM FKBP12",31
same,residual kinase activity (LRRK2),"LRRK2 [1]; 123 nM drug, no FKBP12",47
same,residual kinase activity (LRRK2),"LRRK2 [1]; 370 nM drug, no FKBP12",25
same,residual kinase activity (LRRK2),"LRRK2 [1]; 1110 nM drug, + 10 µM FKBP12",7
same,residual kinase activity (LRRK2),"LRRK2 [1]; 1110 nM drug, no FKBP12",9
same,residual kinase activity (LRRK2),"LRRK2 [1]; 3330 nM drug, no FKBP12",4
same,residual kinase activity (LRRK2),"LRRK2 [1]; 10000 nM drug, + 10 µM FKBP12",5
same,residual kinase activity (LRRK2),"LRRK2 [1]; 10000 nM drug, no FKBP12",3
same,remaining activity at 0.000495 µM,"LRRK2 [1]; read-out: residual kinase activity (LRRK2), 0.495 nM drug, + 10 µM FKBP12",91%
same,remaining activity at 0.000495 µM,"LRRK2 [1]; read-out: residual kinase activity (LRRK2), 0.495 nM drug, no FKBP12",101%
same,remaining activity at 0.00152 µM,"LRRK2 [1]; read-out: residual kinase activity (LRRK2), 1.52 nM drug, + 10 µM FKBP12",91%
same,remaining activity at 0.00152 µM,"LRRK2 [1]; read-out: residual kinase activity (LRRK2), 1.52 nM drug, no FKBP12",106%
same,remaining activity at 0.00457 µM,"LRRK2 [1]; read-out: residual kinase activity (LRRK2), 4.57 nM drug, + 10 µM FKBP12",78%
same,remaining activity at 0.00457 µM,"LRRK2 [1]; read-out: residual kinase activity (LRRK2), 4.57 nM drug, no FKBP12",94%
same,remaining activity at 0.0137 µM,"LRRK2 [1]; read-out: residual kinase activity (LRRK2), 13.7 nM drug, + 10 µM FKBP12",57%
same,remaining activity at 0.0137 µM,"LRRK2 [1]; read-out: residual kinase activity (LRRK2), 13.7 nM drug, no FKBP12",89%
same,remaining activity at 0.0412 µM,"LRRK2 [1]; read-out: residual kinase activity (LRRK2), 41.2 nM drug, + 10 µM FKBP12",38%
same,remaining activity at 0.0412 µM,"LRRK2 [1]; read-out: residual kinase activity (LRRK2), 41.2 nM drug, no FKBP12",66%
same,remaining activity at 0.123 µM,"LRRK2 [1]; read-out: residual kinase activity (LRRK2), 123 nM drug, + 10 µM FKBP12",24%
same,remaining activity at 0.123 µM,"LRRK2 [1]; read-out: residual kinase activity (LRRK2), 123 nM drug, no FKBP12",54%
same,remaining activity at […],"LRRK2 [1]; read-out: residual kinase activity (LRRK2), 370 nM drug, + 10 µM FKBP12",14%
same,remaining activity at […],"LRRK2 [1]; read-out: residual kinase activity (LRRK2), 370 nM drug, no FKBP12",29%
same,remaining activity at 1.11 µM,"LRRK2 [1]; read-out: residual kinase activity (LRRK2), 1110 nM drug, + 10 µM FKBP12",8%
same,remaining activity at 1.11 µM,"LRRK2 [1]; read-out: residual kinase activity (LRRK2), 1110 nM drug, no FKBP12",10%
same,remaining activity at 3.33 µM,"LRRK2 [1]; read-out: residual kinase activity (LRRK2), 3330 nM drug, + 10 µM FKBP12",5%
same,remaining activity at 3.33 µM,"LRRK2 [1]; read-out: residual kinase activity (LRRK2), 3330 nM drug, no FKBP12",5%
same,remaining activity at 10 µM,"LRRK2 [1]; read-out: residual kinase activity (LRRK2), 10000 nM drug, + 10 µM FKBP12",6%
same,remaining activity at 10 µM,"LRRK2 [1]; read-out: residual kinase activity (LRRK2), 10000 nM drug, no FKBP12",5%
same,IC50,LRRK2 [1]; with 10 µM FKBP12,21 nM
same,IC50,LRRK2 [1]; without added FKBP12,107 nM
same,IC50,LRRK2 [2],6.7 nM
same,"level of phospho-LRRK2 (S935), % of the basal level",LRRK2 [2]; 100 nM FK-GNE7915,15%
same,effect on LRRK2 activity,LRRK2 [2]; 100 nM FK-GNE7915 + 1 µM RapaBlock,had no effect on LRRK2 activity
same,P-LRRK2(S935) in RAW264.7 cells,"LRRK2 [2]; 100 nM compound, +1 µM RapaBlock",99.2 and 97.5 and 90.7
same,P-LRRK2(S935) in RAW264.7 cells,"LRRK2 [2]; 100 nM compound, No RapaBlock",16.7 and 15.6 and 13.4
same,P-LRRK2(S935) in RAW264.7 cells,"LRRK2 [2]; Conc 0.457247 nM, 0 nM = 100",84.5 and 90.2 and 94.3
same,P-LRRK2(S935) in RAW264.7 cells,"LRRK2 [2]; Conc 1.37174 nM, 0 nM = 100",79.4 and 82.9 and 87.4
same,P-LRRK2(S935) in RAW264.7 cells,"LRRK2 [2]; Conc 4.11523 nM, 0 nM = 100",67.8 and 77.9 and 73.6
same,P-LRRK2(S935) in RAW264.7 cells,"LRRK2 [2]; Conc 12.3457 nM, 0 nM = 100",32.2 and 34.9 (2×)
same,P-LRRK2(S935) in RAW264.7 cells,"LRRK2 [2]; Conc 37.037 nM, 0 nM = 100",13.7 and 14.5 and 16.2
same,P-LRRK2(S935) in RAW264.7 cells,"LRRK2 [2]; Conc 111.111 nM, 0 nM = 100",11.4 (2×) and 13.1
same,P-LRRK2(S935) in RAW264.7 cells,"LRRK2 [2]; Conc 333.333 nM, 0 nM = 100",13.1 and 12.6 and 11.8
same,P-LRRK2(S935) in RAW264.7 cells,"LRRK2 [2]; Conc 1000 nM, 0 nM = 100",14 and 15.7 and 13.3
CCC(C)(C)C(=O)C(=O)N1CCCC[C@H]1C(=O)O[C@H](CCc1ccc(OC)c(OC)c1)c1cccc(NC(=O)CN2CCN(C)CC2)c1 [Compound 01-072],Kd,FKBP12,13 nM
CCC(C)(C)C(=O)C(=O)N1CCCC[C@H]1C(=O)O[C@H](CCc1ccc(OC)c(OC)c1)c1cccc(NC(=O)Cc2ccccn2)c1 [Compound 03-083],Kd,FKBP12,31 nM
CCC(C)(C)C(=O)C(=O)N1CCCC[C@H]1C(=O)O[C@H](CCc1ccc(OC)c(OC)c1)c1cccc(NC(=O)CCOCCN)c1 [Compound 03-084],Kd,FKBP12,19 nM
CO[C@H]1C[C@@H](C)C/C(C)=C/[C@@H](C/C=C/c2ccncc2)C(=O)C[C@H](O)[C@@H](C)[C@@H](/C(C)=C/[C@@H]2CC[C@@H](O)[C@H](OC)C2)OC(=O)[C@@H]2CCCCN2C(=O)C(=O)[C@]2(O)O[C@H]1[C@@H](OC)C[C@H]2C [Compound 05-051],Kd,FKBP12,1.2 nM
